Key:
Type in all cases: in vivo
[1] = tested on: Digitaria ciliaris; assay: Test Example 5: herbicidal effect by foliage application, plastic box (symbol F); details: 320 g/ha, 3 weeks after application
How it was run: (§1)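 Greenhouse foliar test: seedlings at 14 days, grown 25° C. to 30° C. in sterilized diluvial soil; compound applied as an aqueous dilution of an emulsion; response read 3 weeks after spraying.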

[2] = tested on: Scirpus juncoides; assay: Test Example 1: herbicidal activity, application before weed generation in submerged conditions (symbol B); details: application herbicide amount 320 g/ha
How it was run: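 Greenhouse growth at 25–30 °C lasted 3 weeks after treatment, when each weed was graded 0–5 by herbicidal ratio. Treatment was a diluted emulsion applied to the water surface of 4 cm-submerged alluvial soil on the sowing day.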

[3] = tested on: wheat; assay: Test Example 4: effect on crop by soil treatment (symbol e); details: for e: wheat, effect grade on crop: 320 g/ha
How it was run: (§2)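 Plants grew in a 25° C. to 30° C. greenhouse after spot-sowing of seeds, including beet, rapeseed, wheat and rice, into sterilized diluvial soil under roughly 1.5 cm of cover soil.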

[4] = tested on: rapeseed; assay: Test Example 5: effect on crop by foliage application, plastic box (symbol g); details: 320 g/ha, 3 weeks after application
How it was run: (§3)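 Seeds were sown in spots in sterilized diluvial soil held in a plastic box 21 cm × 13 cm × 7 cm deep, covered with about 1.5 cm of soil, and grown in a greenhouse at 25° C. to 30° C.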

[5] = tested on: rice; assay: Test Example 4: effect on crop by soil treatment (symbol b); details: for b: directly sowed rice plant, effect grade on crop: 320 g/ha
How it was run: as §2

[6] = tested on: soybean; assay: Test Example 4: effect on crop by soil treatment (symbol d); details: for d: soybean, effect grade on crop: 320 g/ha
How it was run: as §2

[7] = tested on: Echinochloa crus-galli var. crus-galli; assay: Test Example 5: herbicidal effect by foliage application, plastic box (symbol H); details: 320 g/ha, 3 weeks after application
How it was run: as §1

[8] = tested on: transplanted rice plant; assay: Test Example 1: effect on crop, application before weed generation in submerged conditions (symbol a); details: application herbicide amount 320 g/ha
How it was run: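 Rice at 2.5 leaf stage transplanted into submerged soil (4 cm depth) sown with three weed species; herbicide applied before weed emergence.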

[9] = tested on: corn; assay: Test Example 5: effect on crop by foliage application, plastic box (symbol c); details: 320 g/ha, 3 weeks after application
How it was run: as §3

[10] = tested on: Lolium multiflorum Lam.; assay: Test Example 4: herbicidal effect by soil treatment (symbol K); details: for K: Lolium multiflorum Lam., herbicidal effect grade: 320 g/ha
How it was run: (§4)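 Seeds were sown in sterilized diluvial soil, covered with about 1.5 cm of soil, and the soil surface was sprayed with a water-diluted emulsion of the compound at a predetermined rate. Plants grew in a greenhouse at 25° C. to 30° C.; effects were scored visually 3 weeks after application.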

[11] = tested on: Monochoria vaginalis; assay: Test Example 2: herbicidal activity, application during weed generation in submerged conditions (symbol C); details: Table 23; application herbicide amount 320 g/ha; grade 0-5 by criteria of Test Example 1
How it was run: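 Alluvial soil in pots was flooded to a 4 cm water depth and sown with a mix of the three weed species, then grown in a greenhouse at 25° C. to 30° C. At the one- to two-leaf stage, an emulsifiable formulation diluted in water to a set dose was applied to the water surface. Effects were scored visually 3 weeks later.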

[12] = tested on: Alopecurus myosuroides; assay: Test Example 4: herbicidal effect by soil treatment (symbol J); details: for J: Alopecurus myosuroides, herbicidal effect grade: 320 g/ha
How it was run: as §4

[13] = tested on: Alopecurus myosuroides; assay: Test Example 5: herbicidal effect by foliage application, plastic box (symbol J); details: 320 g/ha, 3 weeks after application
How it was run: as §1

[14] = application herbicide amount 320 g/ha

| Compound | F: Digitaria ciliaris, herbicidal effect grade [1] | Herbicidal effect grade, B: Scirpus juncoides [2] | g: rapeseed, effect on crop grade [4] | H: Echinochloa crus-galli var. crus-galli, herbicidal effect grade [7] | Effect grade on crop, a: transplanted rice plant [8] | c: corn, effect on crop grade [9] | Herbicidal effect grade, C: Monochoria vaginalis [11] | J: Alopecurus myosuroides, herbicidal effect grade [13] | e (wheat) effect on crop grade [3, 14] | b (directly sowed rice plant) effect on crop grade [5, 14] | d (soybean) effect on crop grade [6, 14] | K (Lolium multiflorum Lam.) herbicidal effect grade [10, 14] | J (Alopecurus myosuroides) herbicidal effect grade [12, 14] | F: Digitaria ciliaris, herbicidal effect (criteria 0-5) [1] | e: wheat, effect grade on crop [3] | g: rapeseed, effect on crop (criteria 0-5) [4] | b: directly sowed rice plant, effect grade on crop [5] | d: soybean, effect grade on crop [6] | H: Echinochloa crus-galli var. crus-galli, herbicidal effect (criteria 0-5) [7] | c: corn, effect on crop (criteria 0-5) [9] | also measured |
| --- | --- | --- | --- | --- | --- | --- | --- | --- | --- | --- | --- | --- | --- | --- | --- | --- | --- | --- | --- | --- | --- |
| CON=C(CC1CC(O)=C(c2c(C)cc(Br)cc2C)C1=O)C1CC1 (stereo not drawn) [9-002] | 5 (Herbicidal ratio of 90% or more (almost completely withered)) | 2 (Herbicidal ratio of 20% or higher and lower than 40%) | 4 (Herbicidal ratio of 70% or higher and lower than 90%) | 5 (Herbicidal ratio of 90% or more (almost completely withered)) | 5 (Herbicidal ratio of 90% or more (almost completely withered)) | 5 (Herbicidal ratio of 90% or more (almost completely withered)) | 0 (Herbicidal ratio of 5% or lower (almost no effect)) | 5 (Herbicidal ratio of 90% or more (almost completely withered)) |  |  |  |  |  |  |  |  |  |  |  |  | Effect on crop grade, e: wheat [3, 14]: 0 (Herbicidal ratio of 5% or lower (almost no effect)); Effect on crop grade, b: directly sowed rice plant [5, 14]: 5 (Herbicidal ratio of 90% or more (almost completely withered)); Effect on crop grade, d: soybean [6, 14]: 0 (Herbicidal ratio of 5% or lower (almost no effect)); Herbicidal effect grade, K: Lolium multiflorum Lam. [10, 14]: 5 (Herbicidal ratio of 90% or more (almost completely withered)); Herbicidal effect grade, J: Alopecurus myosuroides [12, 14]: 5 (Herbicidal ratio of 90% or more (almost completely withered)) |
| COCC(CC1CC(O)=C(c2c(C)cc(C)cc2C)C1=O)=NOC (stereo not drawn) [1-040] | 4 (Herbicidal ratio of 70% or higher and lower than 90%) | 2 (Herbicidal ratio of 20% or higher and lower than 40%) | 4 (Herbicidal ratio of 70% or higher and lower than 90%) | 5 (Herbicidal ratio of 90% or more (almost completely withered)) | 4 (Herbicidal ratio of 70% or higher and lower than 90%) | 3 (Herbicidal ratio of 40% or higher and lower than 70%) | 0 (Herbicidal ratio of 5% or lower (almost no effect)) | 5 (Herbicidal ratio of 90% or more (almost completely withered)) | 0 (Herbicidal ratio of 5% or lower (almost no effect)) | 5 (Herbicidal ratio of 90% or more (almost completely withered)) | 0 (Herbicidal ratio of 5% or lower (almost no effect)) | 4 (Herbicidal ratio of 70% or higher and lower than 90%) | 4 (Herbicidal ratio of 70% or higher and lower than 90%) |  |  |  |  |  |  |  |  |
| CON=C(C)CC1CC(OC(=O)COc2ccc(C=O)cc2)=C(c2c(C)cc(C)cc2C)C1=O (stereo not drawn) [1-079] |  | 5 (Herbicidal ratio of 90% or more (almost completely withered)) |  |  | 5 (Herbicidal ratio of 90% or more (almost completely withered)) |  | 3 (Herbicidal ratio of 40% or higher and lower than 70%) |  |  |  |  |  |  | 5 (Herbicidal ratio of 90% or more (almost completely withered)) | 4 (Herbicidal ratio of 70% or higher and lower than 90%) | 5 (Herbicidal ratio of 90% or more (almost completely withered)) | 5 (Herbicidal ratio of 90% or more (almost completely withered)) | 1 (Herbicidal ratio of 5% or higher and lower than 20%) | 5 (Herbicidal ratio of 90% or more (almost completely withered)) | 5 (Herbicidal ratio of 90% or more (almost completely withered)) | K: Lolium multiflorum Lam., herbicidal effect grade [10]: 5 (Herbicidal ratio of 90% or more (almost completely withered)); J: Alopecurus myosuroides, herbicidal effect grade [12]: 5 (Herbicidal ratio of 90% or more (almost completely withered)); J: Alopecurus myosuroides, herbicidal effect (criteria 0-5) [13]: 5 (Herbicidal ratio of 90% or more (almost completely withered)) |
| CC(CC1CC(O)=C(c2c(C)cc(C)cc2C)C1=O)=NO (stereo not drawn) [1-058] | 5 (Herbicidal ratio of 90% or more (almost completely withered)) | 0 (Herbicidal ratio of 5% or lower (almost no effect)) | 4 (Herbicidal ratio of 70% or higher and lower than 90%) | 5 (Herbicidal ratio of 90% or more (almost completely withered)) | 5 (Herbicidal ratio of 90% or more (almost completely withered)) | 4 (Herbicidal ratio of 70% or higher and lower than 90%) | 0 (Herbicidal ratio of 5% or lower (almost no effect)) | 5 (Herbicidal ratio of 90% or more (almost completely withered)) | 0 (Herbicidal ratio of 5% or lower (almost no effect)) | 5 (Herbicidal ratio of 90% or more (almost completely withered)) | 0 (Herbicidal ratio of 5% or lower (almost no effect)) | 5 (Herbicidal ratio of 90% or more (almost completely withered)) | 5 (Herbicidal ratio of 90% or more (almost completely withered)) |  |  |  |  |  |  |  |  |
| CC(CC1CC(O)=C(c2c(C)cc(C)cc2C)C1=O)=NOCc1ccccc1F (stereo not drawn) [1-026] | 5 (Herbicidal ratio of 90% or more (almost completely withered)) | 5 (Herbicidal ratio of 90% or more (almost completely withered)) | 4 (Herbicidal ratio of 70% or higher and lower than 90%) | 4 (Herbicidal ratio of 70% or higher and lower than 90%) | 5 (Herbicidal ratio of 90% or more (almost completely withered)) | 3 (Herbicidal ratio of 40% or higher and lower than 70%) | 3 (Herbicidal ratio of 40% or higher and lower than 70%) | 5 (Herbicidal ratio of 90% or more (almost completely withered)) | 2 (Herbicidal ratio of 20% or higher and lower than 40%) | 4 (Herbicidal ratio of 70% or higher and lower than 90%) | 0 (Herbicidal ratio of 5% or lower (almost no effect)) | 5 (Herbicidal ratio of 90% or more (almost completely withered)) | 5 (Herbicidal ratio of 90% or more (almost completely withered)) |  |  |  |  |  |  |  |  |
| CON=C(C)CC1CC(OC(=O)COc2ccc(C(C)=O)cc2)=C(c2c(C)cc(C)cc2C)C1=O (stereo not drawn) [1-080] |  | 5 (Herbicidal ratio of 90% or more (almost completely withered)) |  |  | 5 (Herbicidal ratio of 90% or more (almost completely withered)) |  | 2 (Herbicidal ratio of 20% or higher and lower than 40%) |  |  |  |  |  |  | 5 (Herbicidal ratio of 90% or more (almost completely withered)) | 4 (Herbicidal ratio of 70% or higher and lower than 90%) | 4 (Herbicidal ratio of 70% or higher and lower than 90%) | 5 (Herbicidal ratio of 90% or more (almost completely withered)) | 1 (Herbicidal ratio of 5% or higher and lower than 20%) | 5 (Herbicidal ratio of 90% or more (almost completely withered)) | 5 (Herbicidal ratio of 90% or more (almost completely withered)) | K: Lolium multiflorum Lam., herbicidal effect grade [10]: 5 (Herbicidal ratio of 90% or more (almost completely withered)); J: Alopecurus myosuroides, herbicidal effect grade [12]: 5 (Herbicidal ratio of 90% or more (almost completely withered)); J: Alopecurus myosuroides, herbicidal effect (criteria 0-5) [13]: 5 (Herbicidal ratio of 90% or more (almost completely withered)) |

Reference: patent publication US11000033B2, “Ketone or oxime compound, and herbicide” (NISSAN CHEMICAL CORPORATION, priority 2014, dated 2021)
